Experimental data from article PMC5017016, “Calcium/calmodulin alleviates substrate inhibition in a strawberry UDP-glucosyltransferase involved in fruit anthocyanin biosynthesis” (BMC Plant Biology, 2016).

Target: T1, FvUGT1 (Fragaria vesca, UniProt A0A1S5NSV4)
T1 construct: gene UGT1; full-length ORF in pET-32 (KpnI/BamHI), N- and C-terminal His-tags kept, fusion 72 kD, E. coli BL21(DE3) pLysS, Ni-NTA; oligomer state unknown
T1 sequence (A0A1S5NSV4 1-465): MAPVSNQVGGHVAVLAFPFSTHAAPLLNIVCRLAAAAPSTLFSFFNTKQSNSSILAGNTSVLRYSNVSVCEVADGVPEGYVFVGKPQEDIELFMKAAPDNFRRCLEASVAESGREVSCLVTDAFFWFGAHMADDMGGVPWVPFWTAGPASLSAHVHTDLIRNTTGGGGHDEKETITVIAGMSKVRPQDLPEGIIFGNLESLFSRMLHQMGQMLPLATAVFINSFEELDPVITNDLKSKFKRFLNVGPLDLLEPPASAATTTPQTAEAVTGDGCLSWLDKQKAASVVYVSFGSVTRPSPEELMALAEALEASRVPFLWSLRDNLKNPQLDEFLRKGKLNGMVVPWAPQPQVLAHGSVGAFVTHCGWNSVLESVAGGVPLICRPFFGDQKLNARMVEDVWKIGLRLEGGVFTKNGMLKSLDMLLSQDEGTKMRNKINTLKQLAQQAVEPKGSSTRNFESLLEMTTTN
Test: phosphatase-coupled malachite green glycosyltransferase assay; partial uncompetitive substrate inhibition fit (modified Hill, x = […])
Type: biochemical
Settings: second site, no calmodulin, 5 mM UDP-Glc, 0–1,400 μM pelargonidin chloride, 10 mM CaCl2, pH 7.5, 37 °C

Compound: Oc1ccc(-c2[o+]c3cc(O)cc(O)c3cc2O)cc1 [pelargonidin]
- K i: 331.5 ± 13.3 µM
